Literature values as cited in patent US10927398B2, “Compositions for CYP450 phenotyping using saliva samples” (Concordia University, Inc., priority 2015, dated 2021).
Read-outs that look alike come from different tables or passages of the source.

Experiments:
[1] = cited from earlier work
plasma protein = settings: cited from earlier work
[2] = cited from earlier work; remark: listed apart in the source
[3] = Table of Exemplary Drugs, CYP3A4
[4] = Table of Exemplary Drugs, CYP1A2
[5] = Table of Exemplary Drugs, CYP2D6
[6] = Table of Exemplary Drugs, CYP2C9
[7] = Table of Exemplary Drugs, CYP2C19

## CCCc1nc(C)c2c(=O)[nH]c(-c3cc(S(=O)(=O)N4CCN(CC)CC4)ccc3OCC)nn12 [Vardenafil (Levitra), Vardenafil]
[1]; [3]
  ORAL BIOAVAILABILITY: 15-44%
Plasma protein; [3]
  PLASMA PROTEIN BINDING: 95%
[2]; [3]
  HALF-LIFE: 4 to 5 h

## CCCN1CCCC[C@H]1C(=O)Nc1c(C)cccc1C [Ropivacaine]
[1]; cell marked IV, Table of Exemplary Drugs, CYP1A2
  ORAL BIOAVAILABILITY: 87-98% - IV
Plasma protein; [4]
  PLASMA PROTEIN BINDING: 94%
[2]; [4]
  HALF-LIFE: 5 to 7 h

## CC(CN1c2ccccc2Sc2ccccc21)N(C)C (centres unmarked) [Promethazine]
[1]; [5]
  ORAL BIOAVAILABILITY: 88%
Plasma protein; [5]
  PLASMA PROTEIN BINDING: 93%
[2]; [5]
  HALF-LIFE: 16 to 19 h

## COc1ccccc1OCCNCC(O)COc1cccc2[nH]c3ccccc3c12 (centres unmarked) [Carvedilol]
[1]; [5]
  ORAL BIOAVAILABILITY: 25-35%
Plasma protein; [5]
  PLASMA PROTEIN BINDING: 95-98% ^
[2]; [5]
  HALF-LIFE: 6 to 10 h

## OC(c1cc(C(F)(F)F)nc2c(C(F)(F)F)cccc12)C1CCCCN1 (centres unmarked) [Mefloquine (Lariam), Mefloquine]
[1]; [3]
  ORAL BIOAVAILABILITY: 85%
Plasma protein; [3]
  PLASMA PROTEIN BINDING: 98%
[2]; [3]
  HALF-LIFE: 3 weeks

## CCCC1O[C@@H]2C[C@H]3[C@@H]4CCC5=CC(=O)C=C[C@]5(C)[C@H]4[C@@H](O)C[C@]3(C)[C@]2(C(=O)CO)O1 (some centres unmarked) [Budesonide (Entocort), Budesonide]
[1]; [3]
  ORAL BIOAVAILABILITY: 9-21%
Plasma protein; [3]
  PLASMA PROTEIN BINDING: 85-90% ^
[2]; [3]
  HALF-LIFE: 2 to 3.6 h

## C#Cc1cccc(Nc2ncnc3cc(OCCOC)c(OCCOC)cc23)c1 [Erlotinib]
[1]; [4]
  ORAL BIOAVAILABILITY: 60-100%
[1]; [3]
  ORAL BIOAVAILABILITY: 60%
Plasma protein; [4]
  PLASMA PROTEIN BINDING: 93%
Plasma protein; [3]
  PLASMA PROTEIN BINDING: 93%
[2]; [4]
  HALF-LIFE: 36.2 h

## CC#C[C@]1(O)CC[C@H]2[C@@H]3CCC4=CC(=O)CCC4=C3[C@@H](c3ccc(N(C)C)cc3)C[C@@]21C [Mifepristone (Mifeprex), Mifepristone]
[1]; [3]
  ORAL BIOAVAILABILITY: 69%
Plasma protein; [3]
  PLASMA PROTEIN BINDING: 99.2%^
[2]; [3]
  HALF-LIFE: 20 to 85 h

## Cc1nccn1CC1CCc2c(c3ccccc3n2C)C1=O (centres unmarked) [Ondansetron]
[1]; [4]
  ORAL BIOAVAILABILITY: 100%
[1]; [5]
  ORAL BIOAVAILABILITY: 56%
Plasma protein; [4]
  PLASMA PROTEIN BINDING: 70-76% ^
Plasma protein; [5]
  PLASMA PROTEIN BINDING: 70-76% ^
[2]; [4]
  HALF-LIFE: 3 to 6 h
[2]; [5]
  HALF-LIFE: 3 to 6.2 h

## C=CCc1ccccc1OCC(O)CNC(C)C (centres unmarked) [Alprenolol]
[1]; [5]
  ORAL BIOAVAILABILITY: 20%
Plasma protein; [5]
  PLASMA PROTEIN BINDING: 80%
[2]; [5]
  HALF-LIFE: 2 to 3 h

## CN(C/C=C/C#CC(C)(C)C)Cc1cccc2ccccc12 [Terbinafine]
[1]; [6]
  ORAL BIOAVAILABILITY: 40%
Plasma protein; [6]
  PLASMA PROTEIN BINDING: >99%
[2]; [6]
  HALF-LIFE: 22 to 26 h

## O=C(NCCN1CCOCC1)c1ccc(Cl)cc1 [Moclobemide]
[1]; [7]
  ORAL BIOAVAILABILITY: 55-95%
Plasma protein; [7]
  PLASMA PROTEIN BINDING: 50%
[2]; [7]
  HALF-LIFE: 2 h

## CNCC[C@H](Oc1cccc2ccccc12)c1cccs1 [Duloxetine]
[1]; [5]
  ORAL BIOAVAILABILITY: 30-80%
Plasma protein; [5]
  PLASMA PROTEIN BINDING: >90%
[2]; in vivo
  HALF-LIFE: 12 h

## COc1ccccc1OCC(O)CN1CCN(CC(=O)Nc2c(C)cccc2C)CC1 (centres unmarked) [Ranulazine (Ranexa), Ranulazine]
[1]; [3]
  ORAL BIOAVAILABILITY: 55%
Plasma protein; [3]
  PLASMA PROTEIN BINDING: 62%
[2]; [3]
  HALF-LIFE: 7 to 8.9 h

## COc1cccc2c1C(=O)c1c(O)c3c(c(O)c1C2=O)C[C@@](O)(C(=O)CO)C[C@@H]3O[C@H]1C[C@H](N)[C@H](O)[C@H](C)O1 [Doxorubicin (Adriamycin), Doxorubicin]
[1]; [3]
  ORAL BIOAVAILABILITY: 5%
Plasma protein; [3]
  PLASMA PROTEIN BINDING: 74-76% ^
[2]; [3]
  HALF-LIFE: 20 to 48 h

## Cc1cccc(Nc2ccncc2S(=O)(=O)NC(=O)NC(C)C)c1 [Torasemide]
[1]; [6]
  ORAL BIOAVAILABILITY: 80%
Plasma protein; [6]
  PLASMA PROTEIN BINDING: >99%
[2]; [6]
  HALF-LIFE: 2.2 to 3.8 h

## Cc1nnc2n1-c1ccc(Cl)cc1C(c1ccccc1)=NC2 [Alprazolam (Xanax), Alprazolam]
[1]; [3]
  ORAL BIOAVAILABILITY: 90%
Plasma protein; [3]
  PLASMA PROTEIN BINDING: 80%
[2]; [3]
  HALF-LIFE: 11 h

## CCC1(c2ccccc2)C(=O)NC(=O)NC1=O [Phenobarbital]
[1]; in vivo, po
  ORAL BIOAVAILABILITY: 80-100%
Plasma protein; plasma
  PLASMA PROTEIN BINDING: 20-60% ^
[2]; in vivo
  HALF-LIFE: 36 to 120 h

## C[C@]12CC[C@@H]3c4ccc(O)cc4CC[C@H]3[C@@H]1CC[C@@H]2O [Estradiol]
[1]; [4]
  ORAL BIOAVAILABILITY: 43%
Plasma protein; [4]
  PLASMA PROTEIN BINDING: >95%
[2]; [4]
  HALF-LIFE: 36 h

## CC(C)Nc1cccnc1N1CCN(C(=O)c2cc3cc(NS(C)(=O)=O)ccc3[nH]2)CC1 [Delavirdine (Rescriptor), Delavirdine]
[1]; [3]
  ORAL BIOAVAILABILITY: 85%
Plasma protein; [3]
  PLASMA PROTEIN BINDING: 98%
[2]; [3]
  HALF-LIFE: 5.8 h

## CCN(CC)CCN1C(=O)CN=C(c2ccccc2F)c2cc(Cl)ccc21 [Flurazepam (Dalmane), Flurazepam]
[1]; [3]
  ORAL BIOAVAILABILITY: 83%
Plasma protein; [3]
  PLASMA PROTEIN BINDING: 97.2%^
[2]; [3]
  HALF-LIFE: 2.3 h
